Results as given in publication PMC9841533, “Microtubule-Stabilizing 1,2,4-Triazolo[1,5-a]pyrimidines as Candidate Therapeutics for Neurodegenerative Disease: Matched Molecular Pair Analyses and Computational Studies Reveal New Structure–Activity Insights” (Journal of Medicinal Chemistry, 2022).
Read-outs that look alike come from different tables or passages of the source.

Tests used:
[1] = test system: acetylated α-tubulin (AcTub) levels in QBI293 cells; assay: QBI293 cell assay of MT stabilization: acetylated α-tubulin ELISA; type: cell-based
Experimental: (§1) All test compounds were initially screened in the same cell-based (QBI293) assay of MT stabilization used in our previous SAR studies[11],[12] so as to allow direct comparison with literature data. Changes in levels of acetylated α-tubulin (AcTub) and total α-tubulin (α-Tub), relative to vehicle-treated negative control cells, were determined after 4 h of incubation with test compounds at 1 and 10 μM. To account for possible day-to-day differences in the responsiveness of cells to MT-stabilizing treatment, compound-dependent changes in AcTub levels relative to DMSO-treated cells were also normalized to the corresponding changes caused by 100 nM of 5 that was used as a positive control. In addition, docking studies, binding free energy calculations, and in selected cases, molecular dynamic simulations were conducted using an X-ray structure of the vinca and seventh sites (PDB: 5NJH,[10]7CLD[13]). […] For selected compounds, additional studies included testing in the QBI293 cell AcTub assay at additional compound concentrations, and/or evaluation of test compounds for their ability to prevent MT collapse in primary neuron cultures treated with the phosphatase inhibitor, okadaic […] (OA). Finally, cytotoxicity studies in QBI293 and HeLa cells were also conducted for representative examples (Supporting Information).
(§2) Compound-induced changes in acetylated-tubulin and α-tubulin in QBI293 cells or primary mouse or rat neurons were as previously described.[11],[12] […] The plated cells were incubated overnight, after which the medium was aspirated and fresh medium containing vehicle (0.25–0.3% DMSO) or test compound was added. Test compounds were prepared as 4–20 mM stock solutions in 100% DMSO, and these were diluted in culture medium prior to addition to the QBI293 cells. After 4 h incubation, whole-cell extracts were prepared from the QBI293 cells as described[11] and the supernatant fraction from each sample was assessed for protein content by bicinchoninic acid (BCA) assay. The amount of acetyl-tubulin (AcTub) and α-tubulin (αTub) within the cell extract samples was quantified using specific enzyme-linked immunosorbent assays (ELISA), as previously described.[11] Acetyl-tubulin levels were determined in a similar manner in rat or mouse cortical neuron cultures in which embryonic dissociated cortical neurons were plated at 3 × 10^5 cells/well in poly-D-lysine-coated 12-well plates, essentially as previously described.[11] […] Culture homogenates were prepared for the determination of AcTub levels by ELISA as previously described.[11]

[2] = test system: total α-tubulin (α-Tub) levels in QBI293 cells; assay: QBI293 cell assay: total α-tubulin ELISA; type: cell-based
Experimental: as §1, §2

[3] = test system: acetylated α-tubulin (AcTub) levels in QBI293 cells; set-up: method as in PMID 26980057, PMID 33411523; details: cited from earlier work; for Class (cellular phenotype): activity reported in previous studies
[4] = test system: total α-tubulin (α-Tub) levels in QBI293 cells; set-up: method as in PMID 26980057, PMID 33411523; details: 4 h incubation, reported in previous studies, cited from earlier work
[5] = 4 h, 1 uM compound, read-out: AcTub (1uM)
[6] = 4 h, 10 uM compound, read-out: AcTub (10 uM)
[7] = 4 h, 1 uM compound, read-out: AlfaTub (1uM)
[8] = 4 h, 10 uM compound, read-out: AlfaTub (10 uM)
[9] = 4 h incubation, reported in previous studies
[10] = 4 h incubation, 1 μM, reported in previous studies
[11] = 4 h incubation, 1 μM, read-out: AcTub 1 μM, fold-change compared to vehicle (DMSO)-treated cells
[12] = 4 h incubation, 10 μM, read-out: AcTub 10 μM, fold-change compared to vehicle (DMSO)-treated cells
[13] = 4 h incubation, 1 μM, read-out: α-Tub 1 μM, fold-change compared to vehicle (DMSO)-treated cells
[14] = 4 h incubation, 10 μM, read-out: α-Tub 10 μM, fold-change compared to vehicle (DMSO)-treated cells

| Compound | AcTub (1 uM - normalized) ([1]; 1 uM compound) | AcTub (10 uM - normalized) ([1]; 10 uM compound) | fold induction at 1 µM [1, 5] | fold induction at 10 µM [1, 6] | fold induction at 1 µM [2, 7] | fold induction at 10 µM [2, 8] | Class (cellular phenotype) [3] | α-Tub 1 μM, fold-change compared to vehicle (DMSO)-treated cells [4] [fold-change] | AcTub 10 μM, fold-change compared to vehicle (DMSO)-treated cells [3, 9] [fold-change] | other results |
| --- | --- | --- | --- | --- | --- | --- | --- | --- | --- | --- |
| CC(C)[C@H](Nc1c(-c2c(F)cc(F)cc2F)c(Cl)nc2ncnn12)C(F)(F)F [Compound 9] | 0.17 | 0.38 | 3.12 | 6.78 | 1.04 | 1.06 | I | 1.04 ± 0.01 | – | – |
| C[C@@H](Nc1c(-c2c(F)cc(OCCCN(C)C)cc2F)c(Cl)nc2ncnn12)C1(C)N=N1 [Compound 66] | 1.68 | 0.07 | 21.7 | 0.93 | 0.73 | 1.01 | – | – | – | α-Tub 10 μM, fold-change compared to vehicle (DMSO)-treated cells [4]: 1.01 ± 0.05 fold-change |
| CC(C)[C@@H](C)Nc1c(-c2c(F)cc(F)cc2F)c(Cl)nc2ncnn12 [Compound 1] | – | – | – | – | – | – | I | – | – | – |
| C[C@H](Nc1c(-c2c(F)cc(F)cc2F)c(Cl)nc2ncnn12)C1(C)N=N1 [Compound 62] | 0.13 | 0.28 | 0.84 | 1.85 | 1.07 | 0.94 | I | – | 1.85 ± 0.08 | α-Tub 10 μM, fold-change compared to vehicle (DMSO)-treated cells [4]: 0.94 ± 0.02 fold-change |
| CC(C)(C)CNc1c(-c2c(F)cc(F)cc2F)c(Cl)nc2ncnn12 [Compound 11] | 0.30 | 0.71 | – | – | – | – | I | 1.03 ± 0.07 | 4.79 ± 0.74 | AcTub (1uM) ([1]; 1 uM compound): 2.04; AcTub (10 uM) ([1]; 10 uM compound): 4.79; AlfaTub (1uM) ([2]; 1 uM compound): 1.03; AlfaTub (10 uM) ([2]; 10 uM compound): 1.06; AcTub 1 μM, fold-change compared to positive control compound 5 (100 nM) (in parentheses) [3, 10]: 0.30 fold-change; AcTub 1 μM, fold-change compared to vehicle (DMSO)-treated cells [3, 10]: 2.04 ± 0.11 fold-change |
| Fc1cc(F)c(-c2c(Cl)nc3ncnn3c2NCC2CCC2)c(F)c1 [Compound 15, 5-Chloro-N-(cyclobutylmethyl)-6-(2,4,6-trifluorophenyl)-[1,2,4]triazolo[1,5-a]pyrimidin-7-amine] | 0.22 | 0.44 | 1.55 | 3.08 | 1.07 | 0.96 | – | – | – | AcTub 1 μM, fold-change compared to positive control compound 5 (100 nM) (in parentheses) ([1]; 4 h incubation, 1 μM): 0.22 fold-change; fold induction at 1 µM [1, 11]: 1.55 ± 0.03; AcTub 10 μM, fold-change compared to positive control compound 5 (100 nM) (in parentheses) ([1]; 4 h incubation, 10 μM): 0.44 fold-change; fold induction at 10 µM [1, 12]: 3.08 ± 0.03; fold induction at 1 µM [2, 13]: 1.07 ± 0.01; fold induction at 10 µM [2, 14]: 0.96 ± 0.03 |
| CC(C)[C@@H](Nc1c(-c2c(F)cc(F)cc2F)c(Cl)nc2ncnn12)C(F)(F)F [Compound 8] | 0.16 | 0.73 | 2.79 | 13 | 1.1 | 0.61 | – | 1.10 ± 0.09 | 13.0 ± 0.54 | AcTub 1 μM, fold-change compared to vehicle (DMSO)-treated cells [3, 10]: 2.79 ± 0.04 fold-change |
| CN(C)CCCOc1cc(F)c(-c2c(Cl)nc3ncnn3c2NCC2(C(F)(F)F)CC2)c(F)c1 [Compound 29, 5-Chloro-6-(4-(3-(dimethylamino)propoxy)-2,6-difluorophenyl)-N-((1-(trifluoromethyl)cyclopropyl)methyl)-[1,2,4]triazolo[1,5-a]pyrimidin-7-amine] | 0.63 | 0.14 | 3.75 | 0.81 | 0.82 | 1.24 | – | – | – | AcTub 1 μM, fold-change compared to positive control compound 5 (100 nM) (in parentheses) ([1]; 4 h incubation, 1 μM): 0.63 fold-change; fold induction at 1 µM [1, 11]: 3.75 ± 0.13; AcTub 10 μM, fold-change compared to positive control compound 5 (100 nM) (in parentheses) ([1]; 4 h incubation, 10 μM): 0.14 fold-change; fold induction at 10 µM [1, 12]: 0.81 ± 0.09; fold induction at 1 µM [2, 13]: 0.82 ± 0.01; fold induction at 10 µM [2, 14]: 1.24 ± 0.13 |
